Consider one compound from paper PMC5949348, “The Metabolism of Separase Inhibitor Sepin-1 in Human, Mouse, and Rat Liver Microsomes” (Frontiers in Pharmacology, 2018).

In one assay the test system is separase. Set-up: method as in Zhang et al., 2014. The following applies: ref Zhang et al., 2014; cited from earlier work.
The target in the next assay is T1, CYP2C19 (Homo sapiens, UniProt P33261).
T1 construct: purchased XenoTech
As to the kind of experiment: Inhibition of sepin-1 on CYP2C19. Type of assay: in vitro ADME. Here is the method: (§1) Incubations were performed in 1× PBS (pH 7.4), containing 0, 0.156, 0.312, 0.625, 1.25, 2.5, 5, 10, 20, or 40 μM sepin-1, 2 pmol of each cDNA-expressed P450 enzymes, and corresponding substrates: CYP1A2 (phenacetin, 40 μM, 20 min incubation), 2B6 (efavirenz, 20 μM, 30 min), 2C8 (paclitaxel, 10 μM, 30 min), 2C9 (diclofenac, 5 μM, 15 min), 2C19 [(S)-mephenytoin, 40 μM, 20 min], 2D6 (dextromethorphan, 5 μM, 15 min), and CYP3A4 (midazolam, 3 μM, 10 min) in a final volume of 190 μl. After 5 min of pre-incubation at 37°C, the reaction was initiated by adding 10 μl of 20 mM NADPH (final concentration 1.0 mM) and continued for a specific time as presented above with gentle shaking. Incubations without sepin-1 were used as controls. Reactions were terminated by the addition of 200 μl of ice-cold methanol, vortexing for 30 s, and centrifuging at 15,000 × g for 15 min. Each supernatant was transferred to an auto sampler vial and 5.0 μl was injected on to UHPLC coupled with a QQQMS system for the specific metabolite analysis. A MRM method was used. Incubations were conducted in duplicate. Positive controls were performed by using a known specific inhibitor for each of the isoform assays (Supplementary Table S1). […]

The next assay addresses T2, CYP2C9 (Homo sapiens, UniProt P11712).
T2 construct: purchased XenoTech
As to the kind of experiment: Inhibition of sepin-1 on CYP2C9. Type of assay: in vitro ADME. As to the method:
as §1

The next assay has as its target T3, CYP2C8 (Homo sapiens, UniProt P10632).
T3 construct: purchased XenoTech
T3 sequence (P10632 1-490): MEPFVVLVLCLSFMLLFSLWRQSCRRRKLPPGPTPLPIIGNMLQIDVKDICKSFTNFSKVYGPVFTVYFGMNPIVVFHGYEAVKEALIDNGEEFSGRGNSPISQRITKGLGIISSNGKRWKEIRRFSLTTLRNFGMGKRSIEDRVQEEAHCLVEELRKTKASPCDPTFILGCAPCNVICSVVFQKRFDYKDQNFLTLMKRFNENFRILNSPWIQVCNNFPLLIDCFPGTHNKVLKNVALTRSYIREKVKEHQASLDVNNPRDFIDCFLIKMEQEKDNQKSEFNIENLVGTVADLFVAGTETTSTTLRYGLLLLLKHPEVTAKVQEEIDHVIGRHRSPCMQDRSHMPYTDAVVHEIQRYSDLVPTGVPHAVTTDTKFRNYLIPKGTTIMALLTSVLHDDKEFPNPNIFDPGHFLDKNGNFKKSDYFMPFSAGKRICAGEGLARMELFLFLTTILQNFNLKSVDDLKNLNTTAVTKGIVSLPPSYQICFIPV
As to the kind of experiment: Inhibition of sepin-1 on CYP2C8. The assay is classed as in vitro ADME. Here is the method: as §1

A further assay deals with T4, CYP2B6 (Homo sapiens, UniProt P20813).
T4 construct: purchased XenoTech
T4 sequence (P20813 1-491): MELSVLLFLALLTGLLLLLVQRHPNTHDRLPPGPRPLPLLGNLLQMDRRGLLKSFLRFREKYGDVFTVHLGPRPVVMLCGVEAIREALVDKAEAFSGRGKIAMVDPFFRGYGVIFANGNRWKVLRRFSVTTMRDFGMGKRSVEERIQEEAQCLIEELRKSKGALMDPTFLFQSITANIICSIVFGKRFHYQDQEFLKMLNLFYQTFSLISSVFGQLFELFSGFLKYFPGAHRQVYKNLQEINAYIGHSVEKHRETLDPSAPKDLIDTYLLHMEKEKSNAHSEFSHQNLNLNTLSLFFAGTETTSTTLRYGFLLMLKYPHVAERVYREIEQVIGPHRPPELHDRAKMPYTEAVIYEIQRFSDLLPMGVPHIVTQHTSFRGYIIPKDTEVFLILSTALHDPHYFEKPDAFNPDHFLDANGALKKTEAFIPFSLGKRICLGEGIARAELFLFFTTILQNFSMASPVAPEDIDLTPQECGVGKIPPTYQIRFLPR
As to the kind of experiment: Inhibition of sepin-1 on CYP2B6. The assay is classed as in vitro ADME. As to the method:
as §1

Another assay relates to breast cancer xenografts. Set-up: method as in Zhang et al., 2014. The following applies: mice; ref Zhang et al., 2014; cited from earlier work.
Assay [1] relates to cancer cell lines including breast cancer, leukemia, and neuroblastoma. Set-up: method as in Zhang et al., 2014. The following applies: ref Zhang et al., 2014; cited from earlier work.
The next assay has as its target T5, CYP2D6 (Homo sapiens, UniProt P10635).
T5 construct: purchased XenoTech
As to the kind of experiment: Inhibition of sepin-1 on CYP2D6. The assay is classed as in vitro ADME. Here is the method:
as §1

The structures appear in SMILES notation. Several values for one entry are separate records, joined by “and”; a condition that tells them apart may be missing. Equal values may be shown once. Read-outs that look alike come from different tables or passages of the source. Bounds are passed on as bounds.

T1 sequence (P33261 whole entry): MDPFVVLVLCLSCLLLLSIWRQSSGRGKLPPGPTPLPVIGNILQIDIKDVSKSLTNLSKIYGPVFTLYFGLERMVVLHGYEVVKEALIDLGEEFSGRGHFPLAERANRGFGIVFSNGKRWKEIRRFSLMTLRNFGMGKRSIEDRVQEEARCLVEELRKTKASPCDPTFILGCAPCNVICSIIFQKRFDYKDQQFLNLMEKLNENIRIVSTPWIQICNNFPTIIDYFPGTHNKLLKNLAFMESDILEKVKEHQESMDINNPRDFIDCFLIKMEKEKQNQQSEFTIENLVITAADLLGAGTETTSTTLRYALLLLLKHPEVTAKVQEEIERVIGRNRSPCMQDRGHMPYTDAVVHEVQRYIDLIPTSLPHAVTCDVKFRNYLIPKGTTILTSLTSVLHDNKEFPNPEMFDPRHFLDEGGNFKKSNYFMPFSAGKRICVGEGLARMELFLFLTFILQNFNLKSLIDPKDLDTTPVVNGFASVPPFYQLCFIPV
T5 sequence (P10635 whole entry): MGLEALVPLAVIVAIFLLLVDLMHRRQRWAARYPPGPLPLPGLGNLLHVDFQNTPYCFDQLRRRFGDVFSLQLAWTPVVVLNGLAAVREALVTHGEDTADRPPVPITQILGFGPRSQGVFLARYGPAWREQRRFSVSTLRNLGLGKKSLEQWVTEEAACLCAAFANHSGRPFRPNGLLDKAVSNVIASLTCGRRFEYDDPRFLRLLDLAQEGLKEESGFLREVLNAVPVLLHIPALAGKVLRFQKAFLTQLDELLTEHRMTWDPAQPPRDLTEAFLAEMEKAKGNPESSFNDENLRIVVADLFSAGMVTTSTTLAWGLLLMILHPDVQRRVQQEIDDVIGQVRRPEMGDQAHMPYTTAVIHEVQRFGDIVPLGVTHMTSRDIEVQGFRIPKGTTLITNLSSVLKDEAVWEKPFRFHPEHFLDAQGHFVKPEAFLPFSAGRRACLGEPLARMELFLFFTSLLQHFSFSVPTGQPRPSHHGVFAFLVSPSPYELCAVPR
T2 sequence (P11712 whole entry): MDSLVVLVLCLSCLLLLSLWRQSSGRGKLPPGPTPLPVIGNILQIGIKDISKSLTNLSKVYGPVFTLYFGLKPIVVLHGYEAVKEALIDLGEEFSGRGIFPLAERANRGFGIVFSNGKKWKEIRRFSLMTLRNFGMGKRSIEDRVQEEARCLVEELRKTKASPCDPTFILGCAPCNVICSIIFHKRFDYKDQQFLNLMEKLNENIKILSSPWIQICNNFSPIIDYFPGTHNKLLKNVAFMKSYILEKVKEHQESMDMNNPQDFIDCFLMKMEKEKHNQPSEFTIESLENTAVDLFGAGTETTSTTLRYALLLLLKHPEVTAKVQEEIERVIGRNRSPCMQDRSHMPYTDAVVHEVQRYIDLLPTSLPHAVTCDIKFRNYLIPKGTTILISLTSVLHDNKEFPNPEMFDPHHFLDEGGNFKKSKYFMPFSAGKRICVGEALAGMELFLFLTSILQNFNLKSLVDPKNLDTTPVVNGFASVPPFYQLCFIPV

As to `CC1(C)[N+]([O-])=c2ccc([N+](=O)[O-])cc2=[N+]1[O-]` [Sepin-1, 2,2-dimethyl-5-nitro-2H-benzimidazole-1,3-dioxide], the “Inhibition of separase activity (mode)” value with separase is on record as “inhibits separase activity in a non-competitive way”. In addition, the IC50 at CYP2C19 (FDA classification bands, read-out: Inhibition potency class on CYP2C19) was 1 to 10 µM; on CYP2C19 (substrate (S)-mephenytoin 40 μM, 20 min, metabolite 4-O-mephenytoin, co-incubation, read-out: IC50 on CYP2C19) it was < 10 µM and 8.9 µM; on CYP2C9 (substrate diclofenac 5 μM, 15 min, metabolite 4-O-diclofenac, co-incubation) it was > 10 µM and 21.3 µM; on CYP2C8 (substrate paclitaxel 10 μM, 30 min, metabolite 6-O-paclitaxel, co-incubation), > 10 µM and 17.8 µM; on CYP2B6 (substrate efavirenz 20 μM, 30 min, metabolite 8-O-efavirenz, co-incubation), > 10 µM and 14.5 µM; on CYP2D6 (substrate dextromethorphan 5 μM, 15 min, O-demethylation, co-incubation) it was > 10 µM and 42.5 µM. The “Inhibition potency class on CYP2C9” value at CYP2C9 (FDA classification bands) is “weak inhibition”. Moreover, the “Inhibition potency class on CYP2C8” value on CYP2C8 (FDA classification bands) is “weak inhibition”. In addition, at CYP2B6 (FDA classification bands), the “Inhibition potency class on CYP2B6” value is “weak inhibition”. In the assay with breast cancer xenografts, the “Inhibition of breast cancer xenograft growth” value is reported as “inhibits the growth of breast cancer xenografts in mice”. For the same compound, the “Inhibition of cancer cell line growth” value in assay [1] is on record as “selectively inhibits the growth of cancer cell lines”. For the same compound, on CYP2D6 (FDA classification bands), the “Inhibition potency class on CYP2D6” value is “weak inhibition”.
